Results: patent US20090047221A1 (NIPRI LIMITED, priority 2004, published 2009)

Test system: cancer cell line MDA-MB-468
Experiment: Combination index with known cancer drugs against proliferation (Calcusyn software)
Assay type: cell-based
Settings: MDA-MB-468
Outline: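 MTT proliferation assay: cells exposed continuously to drug for 96 h at 37° C, 5% CO2, screening range 1-200 μg/ml, then MTT 4 h, DMSO solubilisation, absorbance 570 nm. Synergy with known drugs given as combination index (Calcusyn).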

CC1(C)Cc2ccc(C(=O)N[C@@H](Cc3ccccc3)C(=O)O)c(O)c2C(=O)O1 [ALM-74, L-Phenyl Alanine Amide of Compound ALM-73]
Combination Index (Cisplatin 1 × 10^−2 mol/L, ALM-74 0.1 μg/ml): 0.006 | Combination Index (Cisplatin 1 × 10^−2 mol/L, ALM-74 0.5 μg/ml): 0.008 | Combination Index (Cisplatin 1 × 10^−2 mol/L, ALM-74 1.0 μg/ml): 0.082 | Combination Index (Cisplatin 1 × 10^−2 mol/L, ALM-74 5.0 μg/ml): 0.130 | Combination Index (Cisplatin 1 × 10^−3 mol/L, ALM-74 0.1 μg/ml): No | Combination Index (Cisplatin 1 × 10^−3 mol/L, ALM-74 0.5 μg/ml): No | Combination Index (Cisplatin 1 × 10^−3 mol/L, ALM-74 1.0 μg/ml): 0.039 | Combination Index (Cisplatin 1 × 10^−3 mol/L, ALM-74 5.0 μg/ml): 0.346 | Combination Index (Cisplatin 1 × 10^−4 mol/L, ALM-74 0.1 μg/ml): No | Combination Index (Cisplatin 1 × 10^−4 mol/L, ALM-74 0.5 μg/ml): No | Combination Index (Cisplatin 1 × 10^−4 mol/L, ALM-74 1.0 μg/ml): 0.061 | Combination Index (Cisplatin 1 × 10^−4 mol/L, ALM-74 5.0 μg/ml): 1.031 | Combination Index (Cisplatin 1 × 10^−5 mol/L, ALM-74 0.1 μg/ml): No | Combination Index (Cisplatin 1 × 10^−5 mol/L, ALM-74 0.5 μg/ml): No | Combination Index (Cisplatin 1 × 10^−5 mol/L, ALM-74 1.0 μg/ml): 0.069 | Combination Index (Cisplatin 1 × 10^−5 mol/L, ALM-74 5.0 μg/ml): 0.778 | Combination Index (Cisplatin 1 × 10^−6 mol/L, ALM-74 0.1 μg/ml): No | Combination Index (Cisplatin 1 × 10^−6 mol/L, ALM-74 0.5 μg/ml): No | Combination Index (Cisplatin 1 × 10^−6 mol/L, ALM-74 1.0 μg/ml): 0.083 | Combination Index (Cisplatin 1 × 10^−6 mol/L, ALM-74 5.0 μg/ml): No | Combination Index (Cisplatin 1 × 10^−7 mol/L, ALM-74 0.1 μg/ml): No | Combination Index (Cisplatin 1 × 10^−7 mol/L, ALM-74 0.5 μg/ml): No | Combination Index (Cisplatin 1 × 10^−7 mol/L, ALM-74 1.0 μg/ml): 0.092 | Combination Index (Cisplatin 1 × 10^−7 mol/L, ALM-74 5.0 μg/ml): No | Combination Index (Cisplatin 1 × 10^−8 mol/L, ALM-74 0.1 μg/ml): No | Combination Index (Cisplatin 1 × 10^−8 mol/L, ALM-74 0.5 μg/ml): No | Combination Index (Cisplatin 1 × 10^−8 mol/L, ALM-74 1.0 μg/ml): 0.091 | Combination Index (Cisplatin 1 × 10^−8 mol/L, ALM-74 5.0 μg/ml): No | Combination Index (Cisplatin 1 × 10^−9 mol/L, ALM-74 0.1 μg/ml): 0.895 | Combination Index (Cisplatin 1 × 10^−9 mol/L, ALM-74 0.5 μg/ml): No | Combination Index (Cisplatin 1 × 10^−9 mol/L, ALM-74 1.0 μg/ml): 0.090 | Combination Index (Cisplatin 1 × 10^−9 mol/L, ALM-74 5.0 μg/ml): No | Combination Index (Doxorubicin 1 × 10^−4 mol/L, ALM-74 0.1 μg/ml): No | Combination Index (Doxorubicin 1 × 10^−4 mol/L, ALM-74 0.5 μg/ml): 0.277 | Combination Index (Doxorubicin 1 × 10^−4 mol/L, ALM-74 1.0 μg/ml): No | Combination Index (Doxorubicin 1 × 10^−4 mol/L, ALM-74 5.0 μg/ml): No | Combination Index (Doxorubicin 1 × 10^−5 mol/L, ALM-74 0.1 μg/ml): 0.001 | Combination Index (Doxorubicin 1 × 10^−5 mol/L, ALM-74 0.5 μg/ml): 0.007 | Combination Index (Doxorubicin 1 × 10^−5 mol/L, ALM-74 1.0 μg/ml): 0.376 | Combination Index (Doxorubicin 1 × 10^−5 mol/L, ALM-74 5.0 μg/ml): 1.069 | Combination Index (Etoposide 1 × 10^−4 mol/L, ALM-74 0.1 μg/ml): 0.355 | Combination Index (Etoposide 1 × 10^−4 mol/L, ALM-74 0.5 μg/ml): 0.402 | Combination Index (Etoposide 1 × 10^−4 mol/L, ALM-74 1.0 μg/ml): 0.307 | Combination Index (Etoposide 1 × 10^−4 mol/L, ALM-74 5.0 μg/ml): 0.349 | Combination Index (Etoposide 1 × 10^−5 mol/L, ALM-74 0.1 μg/ml): No | Combination Index (Etoposide 1 × 10^−5 mol/L, ALM-74 0.5 μg/ml): 0.613 | Combination Index (Etoposide 1 × 10^−5 mol/L, ALM-74 1.0 μg/ml): 0.031 | Combination Index (Etoposide 1 × 10^−5 mol/L, ALM-74 5.0 μg/ml): 0.053 | Combination Index (Etoposide 1 × 10^−6 mol/L, ALM-74 0.1 μg/ml): No | Combination Index (Etoposide 1 × 10^−6 mol/L, ALM-74 0.5 μg/ml): No | Combination Index (Etoposide 1 × 10^−6 mol/L, ALM-74 1.0 μg/ml): 0.015 | Combination Index (Etoposide 1 × 10^−6 mol/L, ALM-74 5.0 μg/ml): 0.200 | Combination Index (Etoposide 1 × 10^−7 mol/L, ALM-74 0.1 μg/ml): No | Combination Index (Etoposide 1 × 10^−7 mol/L, ALM-74 0.5 μg/ml): No | Combination Index (Etoposide 1 × 10^−7 mol/L, ALM-74 1.0 μg/ml): 0.016 | Combination Index (Etoposide 1 × 10^−7 mol/L, ALM-74 5.0 μg/ml): 0.231 | Combination Index (Etoposide 1 × 10^−8 mol/L, ALM-74 0.1 μg/ml): No | Combination Index (Etoposide 1 × 10^−8 mol/L, ALM-74 0.5 μg/ml): No | Combination Index (Etoposide 1 × 10^−8 mol/L, ALM-74 1.0 μg/ml): 0.016 | Combination Index (Etoposide 1 × 10^−8 mol/L, ALM-74 5.0 μg/ml): 0.261 | Combination Index (Etoposide 1 × 10^−9 mol/L, ALM-74 0.1 μg/ml): No | Combination Index (Etoposide 1 × 10^−9 mol/L, ALM-74 0.5 μg/ml): No | Combination Index (Etoposide 1 × 10^−9 mol/L, ALM-74 1.0 μg/ml): 0.019 | Combination Index (Etoposide 1 × 10^−9 mol/L, ALM-74 5.0 μg/ml): 0.251 | Combination Index (Etoposide 1 × 10^−10 mol/L, ALM-74 0.1 μg/ml): 0.724 | Combination Index (Etoposide 1 × 10^−10 mol/L, ALM-74 0.5 μg/ml): No | Combination Index (Etoposide 1 × 10^−10 mol/L, ALM-74 1.0 μg/ml): 0.022 | Combination Index (Etoposide 1 × 10^−10 mol/L, ALM-74 5.0 μg/ml): 0.265 | Combination Index (Irinotecan 1 × 10^−3 mol/L, ALM-74 0.1 μg/ml): 0.916 | Combination Index (Irinotecan 1 × 10^−3 mol/L, ALM-74 0.5 μg/ml): 0.121 | Combination Index (Irinotecan 1 × 10^−3 mol/L, ALM-74 1.0 μg/ml): No | Combination Index (Irinotecan 1 × 10^−3 mol/L, ALM-74 5.0 μg/ml): No | Combination Index (Irinotecan 1 × 10^−4 mol/L, ALM-74 0.1 μg/ml): 0.189 | Combination Index (Irinotecan 1 × 10^−4 mol/L, ALM-74 0.5 μg/ml): 0.302 | Combination Index (Irinotecan 1 × 10^−4 mol/L, ALM-74 1.0 μg/ml): 0.051 | Combination Index (Irinotecan 1 × 10^−4 mol/L, ALM-74 5.0 μg/ml): 0.051 | Combination Index (Irinotecan 1 × 10^−5 mol/L, ALM-74 0.1 μg/ml): No | Combination Index (Irinotecan 1 × 10^−5 mol/L, ALM-74 0.5 μg/ml): No | Combination Index (Irinotecan 1 × 10^−5 mol/L, ALM-74 1.0 μg/ml): 0.025 | Combination Index (Irinotecan 1 × 10^−5 mol/L, ALM-74 5.0 μg/ml): 0.616 | Combination Index (Irinotecan 1 × 10^−6 mol/L, ALM-74 0.1 μg/ml): 0.518 | Combination Index (Irinotecan 1 × 10^−6 mol/L, ALM-74 0.5 μg/ml): No | Combination Index (Irinotecan 1 × 10^−6 mol/L, ALM-74 1.0 μg/ml): 0.055 | Combination Index (Irinotecan 1 × 10^−6 mol/L, ALM-74 5.0 μg/ml): 0.589 | Combination Index (Irinotecan 1 × 10^−7 mol/L, ALM-74 0.1 μg/ml): 0.067 | Combination Index (Irinotecan 1 × 10^−7 mol/L, ALM-74 0.5 μg/ml): No | Combination Index (Irinotecan 1 × 10^−7 mol/L, ALM-74 1.0 μg/ml): 0.054 | Combination Index (Irinotecan 1 × 10^−7 mol/L, ALM-74 5.0 μg/ml): 0.726 | Combination Index (Irinotecan 1 × 10^−8 mol/L, ALM-74 0.1 μg/ml): 0.046 | Combination Index (Irinotecan 1 × 10^−8 mol/L, ALM-74 0.5 μg/ml): No | Combination Index (Irinotecan 1 × 10^−8 mol/L, ALM-74 1.0 μg/ml): 0.066 | Combination Index (Irinotecan 1 × 10^−8 mol/L, ALM-74 5.0 μg/ml): 0.895 | Combination Index (Irinotecan 1 × 10^−9 mol/L, ALM-74 0.1 μg/ml): 0.049 | Combination Index (Irinotecan 1 × 10^−9 mol/L, ALM-74 0.5 μg/ml): No | Combination Index (Irinotecan 1 × 10^−9 mol/L, ALM-74 1.0 μg/ml): 0.078 | Combination Index (Irinotecan 1 × 10^−9 mol/L, ALM-74 5.0 μg/ml): 0.973 | Combination Index (Irinotecan 1 × 10^−10 mol/L, ALM-74 0.1 μg/ml): 0.22 | Combination Index (Irinotecan 1 × 10^−10 mol/L, ALM-74 0.5 μg/ml): No | Combination Index (Irinotecan 1 × 10^−10 mol/L, ALM-74 1.0 μg/ml): 0.086 | Combination Index (Irinotecan 1 × 10^−10 mol/L, ALM-74 5.0 μg/ml): 0.720
